This is an account of results in patent US20070078177A1, “METHODS AND COMPOSITIONS FOR TREATING NON AGE RELATED HEARING IMPAIRMENT IN A SUBJECT” (WASHINGTON UNIVERSITY IN ST. LOUIS, priority 2005, published 2007).

For data set [1], the system named is outer hair cells (OHCs), inner hair cells (IHCs), and spiral ganglion neurons (SGNs). Put plainly: Cochlear histology after noise exposure: counting of IHCs, OHCs and SGNs, cytocochleograms. The data set is classed as in vivo, C57BL/6J mice. The note with it: for number (density) of SGNs, control vs drug-treated mice: apex, middle and base regions, male mice at 3 months, drug after noise, FIG. 6B (trimethadione), FIG. 7 (ethosuximide); for gross morphological changes in mid-modiolar sections, control vs drug-treated mice: drug after noise exposure. The source says: The methods for fixing, processing and analyzing the mouse cochlea have been described in detail elsewhere (Ohlemiller et al., 2000; Ou et al., 2000). Briefly, mice were perfused transcardially with cold 2% paraformaldehyde and 2% glutaraldehyde in 0.1 M phosphate buffer. Both cochleae were isolated, the stapes removed, and immersed in the same fixative. Complete exposure of the cochlea to the fixative was ensured by making a small hole at the apex of the cochlear capsule, gently circulating the fixative over the cochlea using a transfer pipet. After decalcification in sodium EDTA, the cochleae were post-fixed in buffered 1% osmium tetroxide, dehydrated in an ascending acetone series, and embedded in Epon. For SGN counting, mid-modiolar sections (4 μm) were cut and about fifty sections were collected for each cochlea. The number of SGN nuclei at the apex, middle, and base was counted every fifth section (total 10 sections per one cochlea) under a 200× visual field using a computerized planimetry program of Image Pro Plus (Media Cybernetics). Because all sections were cut in a similar orientation, it was possible to evaluate comparisons between two groups by Mann-Whitney tests. For hair cell counting, cochleae were dissected into roughly half-turn segments. These half-turn segments were examined in mineral oil under Nomarski optics, using a calibrated ocular. Three separate inner hair cell (IHC) and outer hair cell (OHC) counts were obtained from non-overlapping 100 μm segments. Cytocochleogrames were prepared for one pair of mice with the best prophylactic function of trimethadione. The percentages of missing IHCs and OHCs were determined by dividing the number of missing hair cells by the total number of hair cells (i.e. present plus absent) in the organ of Corti.

Data set [2] concerns noise-induced hearing loss (NIHL). Description: Therapeutic function on noise-induced hearing loss: ABR thresholds, drug in drinking water right after noise exposure.
The test system is the same in data set [3]. Description: Prophylactic function on noise-induced hearing loss: ABR thresholds, drug in drinking water before noise exposure. The note with it: for ABR threshold shift prevented, PTS: Drug-Noise-2w; for ABR threshold shift prevented, PTS / ABR threshold shift prevented, TTS: P<0.01; for ABR threshold shift prevented, TTS: Drug-Noise-24h.
The conditions of data set [4]: stated as reason for selecting TMO; cited from earlier work.
The mark [5] stands for this setting: both male and female mice, 3 months old, drug in drinking water two weeks before noise, one-way ANOVA p<0.05, FIG. 5.
[6] abbreviates: female mice, across five tested frequencies, FIG. 5B.
The mark [7] stands for this setting: male mice, five tested frequencies from 5 to 40K, FIG. 5A.

“Also recorded” adds a separate entry of the source.

Turning to `CCC1(C)CC(=O)NC1=O` (stereo not drawn) [ethosuximide], in data set [1], the “number (density) of SGNs, control vs drug-treated mice” value is reported as “no difference; also recorded: not significantly different” and the “gross morphological changes in mid-modiolar sections, control vs drug-treated mice” value was “No obvious gross morphological changes”. The “temporary threshold shift (TTS) vs control” value in data set [2] (24 hours after noise (wideband, 110 dB, 30 min), ethosuximide 400 mg/kg/day in drinking water starting immediately after noise, FIG. 2B) was “significantly lower”. Further, the “permanent threshold shift (PTS) vs control” value in data set [2] (21 days after noise, ethosuximide 400 mg/kg/day in drinking water for three weeks starting immediately after noise, FIG. 2C) is “significantly lower”. Further, the “ABR threshold before the noise exposure vs control” value in data set [2] (ethosuximide group vs control, n=5, 2 month-old mice, FIG. 2A) is “no difference”. In addition, the “ABR threshold shift, PTS, vs control” value in data set [2] (male mice (n=5), 3 months old, ethosuximide in drinking water right after noise, P<0.01, FIG. 4) is listed as “less ABR threshold shift; also recorded: significant protection”. Further, in data set [2] (male mice (n=5), 3 months old, ethosuximide in drinking water right after noise, P<0.05, FIG. 4), the “ABR threshold shift, TTS, vs control” value was “less ABR threshold shift; also recorded: significant protection”.

For `CN1C(=O)OC(C)(C)C1=O` [trimethadione], in data set [3] (24 hours after noise (wideband, 110 dB, 30 min), TMO 200 mg/kg/day in drinking water three weeks before noise, all seven frequencies, FIG. 1B), the “temporary threshold shift (TTS) vs control” value is “significantly lower”. Moreover, the “permanent threshold shift (PTS) vs control” value in data set [3] (14 days after noise (wideband, 110 dB, 30 min), TMO 200 mg/kg/day in drinking water three weeks before noise, all seven frequencies, FIG. 1C, listed as TMO) is “significantly lower”. The “ABR threshold before the noise exposure vs control” value in data set [3] (TMO 200 mg/kg body weight/day in drinking water, one week after TMO treatment, n=5, 8 month-old mice, FIG. 1A) is given as “no difference”. For the same molecule, the “ABR threshold shift at the apex region” value in data set [3] (apex region (0 to 8 kHz), single treated mouse of the pair, control about 25 dB) is “no shift”. Also, in data set [3] (setting [5]), the “protection from NIHL, PTS” value is “significant protection” and the “protection from NIHL, TTS” value is on record as “significant protection”. Further, the “ABR threshold shift after the noise exposure” value in data set [3] (both male and female mice, prophylactic treatment) is “dramatically reduced”. Further, in data set [3] (setting [6]), the “ABR threshold shift prevented, PTS” value was roughly 7.0 dB and the “ABR threshold shift prevented, TTS” value is “about 5.0 dB”. In data set [3] (setting [7]), the “ABR threshold shift prevented, PTS” value is listed as roughly 9.7 dB and the “ABR threshold shift prevented, TTS” value is “about 4.3 dB”. In data set [3] (single treated mouse (male, 3 months) of a selected pair, drug two weeks before noise, control mouse about 35 dB, FIG. 8), the “permanent ABR threshold shift among five frequencies tested” value came out at 11 dB. Further, in data set [3] (single treated mouse of the pair, same value in the control mouse), the “ABR threshold at 40 kHz before the noise exposure” value was 28 dB. Further, the “loss of IHCs” value in data set [1] (apex region (0 to 8 kHz), single treated mouse of the pair, control 0.3%) is recorded as roughly 1.9%. In addition, the “loss of OHCs” value in data set [1] (apex region (0 to 8 kHz), single treated mouse of the pair, control 4.6%) is given as roughly 3.5%. Further, in data set [1], the “number (density) of SGNs, control vs drug-treated mice” value was “no difference; also recorded: not significantly different” and the “gross morphological changes in mid-modiolar sections, control vs drug-treated mice” value is recorded as “No obvious gross morphological changes”. Further, the “missing IHCs” value in data set [1] (base region (32 kHz to 64 kHz), single treated mouse of the pair, control 22.2%, FIG. 8) is “about 1.8%”. Further, in data set [1] (base region (32 kHz to 64 kHz), single treated mouse of the pair, control 74.4%, FIG. 8), the “missing OHCs” value is listed as roughly 68.8%. Moreover, in data set [1] (groups testing the prophylactic function), the “morphological differences among groups” value was “no obvious morphological differences”. Besides, in data set [1] (hook, low base, upper base and apex of cochlea, 3-months-old male mice (n=3), FIG. 6A), the “IHC numbers, control vs drug-treated mice” value is “no significant difference”. In addition, the “OHC numbers, control vs drug-treated mice” value in data set [1] (hook, low base, upper base and apex of cochlea, 3-months-old male mice (n=3), Noise-Only-2w vs Noise-Drug-2w, FIG. 6A) is reported as “trend for the loss of more outer hair cells; also recorded: no significant difference”. In addition, in data set [2] (female mice (n=4), 24 h after noise, drug right after noise, FIG. 3B), the “ABR threshold shift, TTS, vs control” value is reported as “no significant difference”. In addition, the “ABR threshold shift, PTS, vs control” value in data set [2] (female mice (n=4), two weeks after noise, drug right after noise, FIG. 3B) was “no statistical difference”. Further, the “protection from NIHL, TTS” value in data set [2] (male mice (n=3), 3 months old, drug in drinking water right after noise, one-way ANOVA p<0.05, FIG. 3A) is “significant protection”. The “ABR threshold shift, PTS, vs control” value in data set [2] (male mice (n=3), two weeks after noise, drug right after noise, P<0.01) is given as “significantly less; also recorded: significant protection”. The “less ABR threshold shift than controls, TTS” value in data set [2] (male mice, 24 h after noise, drug in drinking water right after noise, across all five frequencies, P<0.05, FIG. 3A) is reported as “about 10 dB”. In addition, the “pre-exposure ABR thresholds (Pre-Noise-Only vs Pre-Noise-Drug)” value in data set [2] (male or female mice, 3 months old, FIGS. 3A and 3B) is on record as “no significant difference”. Also, the water solubility result in data set [4] is recorded as “water soluble”.
